{"source": "ChEMBL document CHEMBL4007422", "about": "(J Med Chem, 2017)", "target": "5-hydroxytryptamine receptor 6 (Homo sapiens, UniProt P50406)", "sequence (P50406 whole entry)": "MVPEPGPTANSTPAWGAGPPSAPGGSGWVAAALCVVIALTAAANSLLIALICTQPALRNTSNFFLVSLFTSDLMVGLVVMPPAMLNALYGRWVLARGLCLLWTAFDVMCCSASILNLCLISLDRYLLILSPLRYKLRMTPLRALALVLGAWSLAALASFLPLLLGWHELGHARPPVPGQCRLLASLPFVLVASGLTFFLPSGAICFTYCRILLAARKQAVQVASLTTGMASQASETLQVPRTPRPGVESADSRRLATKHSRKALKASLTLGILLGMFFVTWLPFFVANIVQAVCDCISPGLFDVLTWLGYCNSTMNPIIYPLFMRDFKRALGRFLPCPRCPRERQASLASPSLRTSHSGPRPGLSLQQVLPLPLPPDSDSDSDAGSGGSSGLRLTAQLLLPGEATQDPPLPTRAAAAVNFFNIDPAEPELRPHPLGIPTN", "test": "Displacement of [3H]-LSD from recombinant human 5-HT6 receptor expressed in HEK293 cells after 60 mins", "type": "cell-based"}
{"smiles": "CN1CCN(Cc2cn(S(=O)(=O)c3ccccc3)c3ncccc23)CC1", "values": [{"measurement": "Ki", "value": 277, "unit": "nM"}]}
{"smiles": "COc1cccc2c1c(CN1CCN(C)CC1)cn2S(=O)(=O)c1ccc(F)cc1", "values": [{"measurement": "Ki", "value": 18.4, "unit": "nM"}]}
{"smiles": "O=S(=O)(c1ccccc1Br)n1cc(CN2CCNCC2)c2ncccc21", "values": [{"measurement": "Ki", "value": 95, "unit": "nM"}]}
{"smiles": "CC(C)Oc1ccc2c(c1)c(CN1CCN(C)CC1)cn2S(=O)(=O)c1ccccc1Br", "values": [{"measurement": "Ki", "value": 36.3, "unit": "nM"}]}
{"smiles": "CC(C)c1ccc(S(=O)(=O)n2cc(CN3CCN(C)CC3)c3cc(Br)ccc32)cc1", "values": [{"measurement": "Ki", "value": 27.6, "unit": "nM"}]}
{"smiles": "COc1ccc(OC)c(S(=O)(=O)n2cc(CN3CCN(C)CC3)c3ccccc32)c1", "values": [{"measurement": "Ki", "value": 91, "unit": "nM"}]}
{"smiles": "CN1CCN(Cc2cn(S(=O)(=O)c3ccccc3Br)c3ccc([N+](=O)[O-])cc23)CC1", "values": [{"measurement": "Ki", "value": 200, "unit": "nM"}]}
{"smiles": "O=C(c1ccccc1)N1CCN(Cc2cn(S(=O)(=O)c3ccccc3Br)c3ccccc23)CC1", "values": [{"measurement": "Ki", "value": 365, "unit": "nM"}]}
{"smiles": "CN1CCN(Cc2cn(S(=O)(=O)c3ccc(F)cc3)c3ccc(Br)cc23)CC1", "values": [{"measurement": "Ki", "value": 17, "unit": "nM"}]}
{"smiles": "CN1CCN(Cc2cn(S(=O)(=O)c3ccccc3F)c3ccccc23)CC1", "values": [{"measurement": "Ki", "value": 7.8, "unit": "nM"}]}
{"smiles": "O=S(=O)(c1ccccc1Br)n1cc(CN2CCN(Cc3ccccc3)CC2)c2ccccc21", "values": [{"measurement": "Ki", "value": 133, "unit": "nM"}]}
{"smiles": "Cc1c(CN2CCN(C)CC2)c2ccccc2n1S(=O)(=O)c1ccc(F)cc1", "values": [{"measurement": "Ki", "value": 55.6, "unit": "nM"}]}
{"smiles": "CN1CCN(Cc2cn(S(=O)(=O)c3cccc(Br)c3)c3ccccc23)CC1", "values": [{"measurement": "Ki", "value": 19, "unit": "nM"}]}
{"smiles": "CN1CCN(Cc2cn(S(=O)(=O)c3ccc(Br)cc3)c3cc(Cl)ccc23)CC1", "values": [{"measurement": "Ki", "value": 59.7, "unit": "nM"}]}
{"smiles": "CN1CCN(Cc2cn(S(=O)(=O)c3ccccc3)c3cc(Cl)ccc23)CC1", "values": [{"measurement": "Ki", "value": 35.7, "unit": "nM"}]}
{"smiles": "CN1CCN(Cc2cn(S(=O)(=O)c3ccc(Br)cc3)c3ccc(F)cc23)CC1", "values": [{"measurement": "Ki", "value": 9.2, "unit": "nM"}]}
{"smiles": "COc1ccc2c(c1)c(CN1CCN(C)CC1)c(Cl)n2S(=O)(=O)c1ccc(C(C)C)cc1", "values": [{"measurement": "Ki", "value": 29.6, "unit": "nM"}]}
{"smiles": "CN1CCN(Cc2cn(S(=O)(=O)c3ccc(F)cc3Cl)c3ccccc23)CC1", "values": [{"measurement": "Ki", "value": 29, "unit": "nM"}]}
{"smiles": "CN1CCN(Cc2cn(S(=O)(=O)c3ccc(F)cc3F)c3ccccc23)CC1", "values": [{"measurement": "Ki", "value": 30, "unit": "nM"}]}
{"smiles": "CN1CCN(Cc2c[nH]c3ccccc23)CC1", "values": [{"measurement": "Ki", "value": 482, "unit": "nM"}]}
{"smiles": "CN1CCN(Cc2cn(S(=O)(=O)c3ccc(F)c(F)c3)c3ccccc23)CC1", "values": [{"measurement": "Ki", "value": 119, "unit": "nM"}]}
{"smiles": "CC(C)c1ccc(S(=O)(=O)n2cc(CN3CCN(C)CC3)c3cc(O)ccc32)cc1", "values": [{"measurement": "Ki", "value": 50, "unit": "nM"}]}
{"smiles": "O=S(=O)(c1ccccc1)n1cc(CN2CCNCC2)c2ccccc21", "values": [{"measurement": "Ki", "value": 7.5, "unit": "nM"}]}
{"smiles": "CN1CCN(Cc2cn(C(=O)c3ccccc3Br)c3ccc(F)cc23)CC1", "values": [{"measurement": "Ki", "value": 326, "unit": "nM"}]}
{"smiles": "CN1CCN(Cc2cn(S(=O)(=O)c3ccc(Br)cc3)c3ccccc23)CC1", "values": [{"measurement": "Ki", "value": 2.13, "unit": "nM"}]}
{"smiles": "O=S(=O)(c1ccccc1Br)n1cc(CN2CCNCC2)c2ccccc21", "values": [{"measurement": "Ki", "value": 4.5, "unit": "nM"}]}
{"smiles": "CN1CCN(CCc2cn(S(=O)(=O)c3cccc(Br)c3)c3ccc(Br)cc23)CC1", "values": [{"measurement": "Ki", "value": 289, "unit": "nM"}]}
{"smiles": "CN1CCN(Cc2cn(S(=O)(=O)c3ccc(F)cc3)c3ccc(Cl)cc23)CC1", "values": [{"measurement": "Ki", "value": 17.5, "unit": "nM"}]}
{"smiles": "CN1CCN(Cc2cn(S(=O)(=O)c3cccc(F)c3)c3ccccc23)CC1", "values": [{"measurement": "Ki", "value": 58, "unit": "nM"}]}
{"smiles": "CN1CCN(CCc2cn(S(=O)(=O)c3ccccc3Br)c3ccc(Br)cc23)CC1", "values": [{"measurement": "Ki", "value": 398, "unit": "nM"}]}
{"smiles": "CN1CCN(Cc2cn(S(=O)(=O)c3ccc(F)cc3)c3ccc(O)cc23)CC1", "values": [{"measurement": "Ki", "value": 34.9, "unit": "nM"}]}
{"smiles": "CN1CCN(Cc2cn(S(=O)(=O)c3ccccc3Br)c3ccc(O)cc23)CC1", "values": [{"measurement": "Ki", "value": 18.7, "unit": "nM"}]}
{"smiles": "CN1CCN(Cc2cn(S(=O)(=O)c3ccc(C#N)cc3)c3ccccc23)CC1", "values": [{"measurement": "Ki", "value": 90.5, "unit": "nM"}]}
{"smiles": "CN1CCN(Cc2cn(S(=O)(=O)c3ccc(F)cc3)c3cccc(Cl)c23)CC1", "values": [{"measurement": "Ki", "value": 31.2, "unit": "nM"}]}
{"smiles": "COc1ccc2c(c1)c(CN1CCNCC1)cn2S(=O)(=O)c1ccc(C(C)C)cc1", "values": [{"measurement": "Ki", "value": 5.7, "unit": "nM"}]}
{"smiles": "CN1CCN(Cc2cn(S(=O)(=O)c3c(F)cccc3F)c3ccccc23)CC1", "values": [{"measurement": "Ki", "value": 64, "unit": "nM"}]}
{"smiles": "CN1CCN(Cc2cn(S(=O)(=O)c3ccccc3Br)c3ccccc23)CC1", "values": [{"measurement": "Ki", "value": 10.2, "unit": "nM"}]}
{"smiles": "CN1CCN(Cc2cn(S(=O)(=O)c3ccccc3Br)c3cccc(Cl)c23)CC1", "values": [{"measurement": "Ki", "value": 23.5, "unit": "nM"}]}
{"smiles": "CN1CCN(Cc2cn(Cc3ccccc3Br)c3ccccc23)CC1", "values": [{"measurement": "Ki", "value": 312, "unit": "nM"}]}
{"smiles": "Cc1ccc(S(=O)(=O)n2cc(CN3CCN(C)CC3)c3ccccc32)cc1", "values": [{"measurement": "Ki", "value": 9.6, "unit": "nM"}]}
{"smiles": "CN1CCN(Cc2cn(S(=O)(=O)c3cccc(Cl)c3)c3ccccc23)CC1", "values": [{"measurement": "Ki", "value": 16.3, "unit": "nM"}]}
{"smiles": "CC(C)c1ccc(S(=O)(=O)n2cc(CN3CCN(C)CC3)c3ccccc32)cc1", "values": [{"measurement": "Ki", "value": 6, "unit": "nM"}]}
{"smiles": "CCN1CCN(Cc2cn(S(=O)(=O)c3ccccc3Br)c3ccc(OC)cc23)CC1", "values": [{"measurement": "Ki", "value": 6.7, "unit": "nM"}]}
{"smiles": "CN1CCN(Cc2cn(S(=O)(=O)c3ccc(OC(F)(F)F)cc3)c3ccccc23)CC1", "values": [{"measurement": "Ki", "value": 150, "unit": "nM"}]}
{"smiles": "CN1CCN(Cc2cn(S(=O)(=O)c3ccc(Cl)cc3Cl)c3ccccc23)CC1", "values": [{"measurement": "Ki", "value": 28.2, "unit": "nM"}]}
{"smiles": "CN1CCN(Cc2cn(S(=O)(=O)c3cccc4ccccc34)c3ccccc23)CC1", "values": [{"measurement": "Ki", "value": 11.5, "unit": "nM"}]}
{"smiles": "COc1ccc2c(CN3CCN(C)CC3)cn(S(=O)(=O)c3ccc(C(C)C)cc3)c2c1", "values": [{"measurement": "Ki", "value": 36.1, "unit": "nM"}]}
{"smiles": "CSc1ccc2c(c1)c(CN1CCN(C)CC1)cn2S(=O)(=O)c1ccccc1Br", "values": [{"measurement": "Ki", "value": 194, "unit": "nM"}]}
{"smiles": "COc1ccc2c(c1)c(CN1CCN(CCF)CC1)cn2S(=O)(=O)c1ccccc1Br", "values": [{"measurement": "Ki", "value": 348, "unit": "nM"}]}
{"smiles": "COc1ccc2c(c1)c(CN1CCNCC1)cn2S(=O)(=O)c1ccc(F)cc1", "values": [{"measurement": "Ki", "value": 6.9, "unit": "nM"}]}
{"smiles": "CN1CCN(Cc2cn(S(=O)(=O)c3c(Cl)cccc3Cl)c3ccccc23)CC1", "values": [{"measurement": "Ki", "value": 100, "unit": "nM"}]}
{"smiles": "Cc1ccc(C)c(S(=O)(=O)n2cc(CN3CCN(C)CC3)c3ccccc32)c1", "values": [{"measurement": "Ki", "value": 64, "unit": "nM"}]}
{"smiles": "CCN1CCN(Cc2cn(S(=O)(=O)c3ccc(C(C)C)cc3)c3ccc(OC)cc23)CC1", "values": [{"measurement": "Ki", "value": 1.7, "unit": "nM"}]}
{"smiles": "COc1ccc2c(CN3CCN(C)CC3)cn(S(=O)(=O)c3ccc(F)cc3)c2c1", "values": [{"measurement": "Ki", "value": 239, "unit": "nM"}]}
{"smiles": "CC(=O)N1CCN(Cc2cn(S(=O)(=O)c3ccccc3Br)c3ccccc23)CC1", "values": [{"measurement": "Ki", "value": 385, "unit": "nM"}]}
{"smiles": "COc1cccc2c1c(CN1CCN(C)CC1)cn2S(=O)(=O)c1ccccc1Br", "values": [{"measurement": "Ki", "value": 14.3, "unit": "nM"}]}
{"smiles": "CCN1CCN(Cc2cn(S(=O)(=O)c3ccc(F)cc3)c3ccc(OC)cc23)CC1", "values": [{"measurement": "Ki", "value": 20, "unit": "nM"}]}
{"smiles": "CN1CCN(Cc2cn(S(=O)(=O)c3ccccc3Br)c3ccc(F)cc23)CC1", "values": [{"measurement": "Ki", "value": 12, "unit": "nM"}]}
{"smiles": "CC(C)c1ccc(S(=O)(=O)n2cc(CN3CCN(C)CC3)c3c(Cl)cccc32)cc1", "values": [{"measurement": "Ki", "value": 9.2, "unit": "nM"}]}
{"smiles": "COc1ccc2c(c1)c(CN1CCN(C)CC1)nn2S(=O)(=O)c1ccccc1Br", "values": [{"measurement": "Ki", "value": 348, "unit": "nM"}]}
{"smiles": "CN1CCN(Cc2cn(S(=O)(=O)c3ccc(Br)cc3)c3ccc(OCC(F)(F)F)cc23)CC1", "values": [{"measurement": "Ki", "value": 96.3, "unit": "nM"}]}
